According to ChEMBL document CHEMBL6120979, “Cell penetrable peptide nucleic acids targeting PDZK1IP1 with anti-inflammatory potential in human keratinocytes” (Bioorg Med Chem Lett, 2025):
Activity calls are given as the source filed them. The rule behind the calls is not given here.

Assays:
Keratinocyte [1] = assay: Antiinflammatory activity in human keratinocytes assessed as downregulation of PTGS2 gene expression preincubated with compound for 24 hrs followed by IFN-gamma addition and measured after 24 hrs by RT-qPCR analysis; format: functional, cell-based; details: dose 0.01-1 µM, time 48.0 hrs
Keratinocyte [2] = assay: Inhibition of PDZK1IP1 mRNA expression in human keratinocytes at 1 uM incubated for 24 hrs by RT-qPCR analysis; format: functional, cell-based
Keratinocyte [3] = assay: Inhibition of PDZK1IP1 mRNA expression in human keratinocytes incubated for 24 hrs by RT-qPCR analysis; format: functional, cell-based
Keratinocyte [4] = assay: Antiinflammatory activity in human keratinocytes assessed as downregulation of IL6 gene expression preincubated with compound for 24 hrs followed by IFN-gamma addition and measured after 24 hrs by RT-qPCR analysis; format: functional, cell-based; details: dose 0.01-1 µM, time 48.0 hrs
RNA [5] = assay: Binding affinity to complementary RNA (unknown origin) with mismatch bases in sodium phosphate buffer; format: nucleic-acid assay
Keratinocyte [6] = assay: Antiinflammatory activity in human keratinocytes assessed as downregulation of PDZK1IP1 gene expression preincubated with compound for 24 hrs followed by IFN-gamma addition and measured after 24 hrs by RT-qPCR analysis; format: functional, cell-based; details: dose 0.01-1 µM, time 48.0 hrs
RNA [7] = assay: Binding affinity to complementary RNA (unknown origin) in sodium phosphate buffer assessed as melting temperature of PNA-RNA duplex; format: nucleic-acid assay
Keratinocyte [8] = assay: Inhibition of PDZK1IP1 mRNA expression in human keratinocytes at 0.01 to 1 uM incubated for 24 hrs by RT-qPCR analysis; format: functional, cell-based; details: dose 0.01-1 µM
Keratinocyte [9] = assay: Antiinflammatory activity in human keratinocytes assessed as downregulation of PTGS2 gene expression at 1 uM preincubated with compound for 24 hrs followed by IFN-gamma addition and measured after 24 hrs by RT-qPCR analysis; format: functional, cell-based; details: time 48.0 hrs
Keratinocyte [10] = assay: Antiinflammatory activity in human keratinocytes assessed as downregulation of PDZK1IP1 gene expression at 1 uM preincubated with compound for 24 hrs followed by IFN-gamma addition and measured after 24 hrs by RT-qPCR analysis; format: functional, cell-based; details: time 48.0 hrs
Keratinocyte [11] = assay: Antiinflammatory activity in human keratinocytes assessed as downregulation of IL6 gene expression at 1 uM preincubated with compound for 24 hrs followed by IFN-gamma addition and measured after 24 hrs by RT-qPCR analysis; format: functional, cell-based; details: time 48.0 hrs

Row | Activity (RNA [5]) | Tm (RNA [7]) [°C] | Structure (SMILES) | Activity (Keratinocyte [1]) | inhibition (Keratinocyte [2]) | inhibition (Keratinocyte [3]) | Activity (Keratinocyte [4]) | Activity (Keratinocyte [6]) | inhibition (Keratinocyte [8]) | Activity (Keratinocyte [9]) | Activity (Keratinocyte [10]) | Activity (Keratinocyte [11])
1 | inactive | 80 | Cc1cn(CC(=O)N(CCN)CC(=O)NCCN(CC(=O)NCCN(CC(=O)NCCN(CC(=O)NCCN(CC(=O)NCCN(CC(=O)NCCN(CC(=O)NCCN(CC(=O)NCCN(CC(=O)NCCN(CC(=O)NCCN(CC(=O)NCCN(CC(=O)NCCN(CC(=O)NCCN(CC(=O)O)C(=O)Cn2cnc3c(=O)[nH]c(N)nc32)C(=O)Cn2cnc3c(=O)[nH]c(NCCCCCCN)nc32)C(=O)Cn2cc(C)c(=O)[nH]c2=O)C(=O)Cn2ccc(N)nc2=O)C(=O)Cn2ccc(N)nc2=O)C(=O)Cn2cc3cc(COCCN)[nH]c3nc2=O)C(=O)Cn2cc(C)c(=O)[nH]c2=O)C(=O)Cn2ccc(N)nc2=O)C(=O)Cn2cnc3c(=O)[nH]c(NCCCCCCN)nc32)C(=O)Cn2cnc3c(=O)[nH]c(N)nc32)C(=O)Cn2cnc3c(N)nc(NCCCCCN)nc32)C(=O)Cn2ccc(N)nc2=O)C(=O)Cn2cnc3c(=O)[nH]c(NCCCCCCN)nc32)c(=O)[nH]c1=O | Dose-dependent-effect | Active | Dose-dependent-effect | Dose-dependent-effect | Dose-dependent-effect | – | – | – | –
2 | inactive | 84 | Cc1cn(CC(=O)N(CCNC(=O)CN(CCNC(=O)CN(CCNC(=O)CN(CCNC(=O)CN(CCNC(=O)CN(CCNC(=O)CN(CCN)C(=O)Cn2cnc3c(=O)[nH]c(N)nc32)C(=O)Cn2cnc3c(=O)[nH]c(NCCCCCCN)nc32)C(=O)Cn2ccc(N)nc2=O)C(=O)Cn2cc(C)c(=O)[nH]c2=O)C(=O)Cn2cc3cc(COCCN)[nH]c3nc2=O)C(=O)Cn2ccc(N)nc2=O)CC(=O)NCCN(CC(=O)NCCN(CC(=O)NCCN(CC(=O)NCCN(CC(=O)NCCN(CC(=O)NCCN(CC(=O)NCCN(CC(=O)O)C(=O)Cn2cnc3c(N)nc(NCCCCCN)nc32)C(=O)Cn2ccc(N)nc2=O)C(=O)Cn2cnc3c(=O)[nH]c(N)nc32)C(=O)Cn2cnc3c(=O)[nH]c(NCCCCCCN)nc32)C(=O)Cn2cc(C)c(=O)[nH]c2=O)C(=O)Cn2cc3cc(COCCN)[nH]c3nc2=O)C(=O)Cn2ccc(N)nc2=O)c(=O)[nH]c1=O | – | Active | – | – | – | Mild_effect; Mild Dose Dependent Effect Observed | – | – | –
3 | – | – | Cc1cn(CC(=O)N(CCN)CC(=O)NCCN(CC(=O)NCCN(CC(=O)NCCN(CC(=O)NCCN(CC(=O)NCCN(CC(=O)NCCN(CC(=O)NCCN(CC(=O)NCCN(CC(=O)NCCN(CC(=O)NCCN(CC(=O)NCCN(CC(=O)NCCN(CC(=O)NCCN(CC(=O)NCCN(CC(=O)NCCN(CC(=O)NCCN(CC(=O)NCCN(CC(=O)NCCN(CC(=O)NCCN(CC(N)=O)C(=O)Cn2cnc3c(=O)[nH]c(N)nc32)C(=O)Cn2ccc(N)nc2=O)C(=O)Cn2cnc3c(N)nc(NCCCCCN)nc32)C(=O)Cn2cc(C)c(=O)[nH]c2=O)C(=O)Cn2ccc(N)nc2=O)C(=O)Cn2cnc3c(N)ncnc32)C(=O)Cn2cnc3c(=O)[nH]c(N)nc32)C(=O)Cn2cnc3c(N)ncnc32)C(=O)Cn2ccc(N)nc2=O)C(=O)Cn2cnc3c(N)nc(N)nc32)C(=O)Cn2cnc3c(N)nc(NCCCCCN)nc32)C(=O)Cn2ccc(N)nc2=O)C(=O)Cn2cc(C)c(=O)[nH]c2=O)C(=O)Cn2cc(C)c(=O)[nH]c2=O)C(=O)Cn2ccc(N)nc2=O)C(=O)Cn2cnc3c(N)nc(NCCCCCN)nc32)C(=O)Cn2ccc(N)nc2=O)C(=O)Cn2cc(C)c(=O)[nH]c2=O)C(=O)Cn2cc3cc(COCCN)[nH]c3nc2=O)c(=O)[nH]c1=O | – | inactive | – | – | – | – | inactive | inactive | inactive
